ChEMBL document CHEMBL4507266, “Data for DCP probe BAY-784” (2021)

Columns and labels:
[1] = molecular target: Thromboxane-A synthase (Homo sapiens) (UniProt P24557); experiment: Inhibition of Thromboxane Synthase at compound concentration of 10.0 uM in the Eurofins-Panlabs enzyme assay (Eurofins_assay_194020); design: substrate with concentration; conditions: Compound concentration 10.0 uM
D(1A) dopamine receptor = D(1A) dopamine receptor (Homo sapiens, UniProt P21728); conditions: Compound concentration 10.0 uM
[2] = molecular target: Kappa-type opioid receptor (Homo sapiens) (UniProt P41145); conditions: Compound concentration 10.0 uM
[3] = molecular target: Mitogen-activated protein kinase 3 (Homo sapiens) (UniProt P27361); experiment: Inhibition of Protein Serine/Threonine Kinase, MAPK3 (ERK1) at 10 µM in the Eurofins-Panlabs enzyme assay (Eurofins_assay_171000); conditions: Compound concentration 10.0 uM
[4] = molecular target: T1, Alpha-2A adrenergic receptor (Homo sapiens) (UniProt P08913); experiment: Adrenergic alpha2A Eurofins-Panlabs radioligand binding assay; design: ligand concentration 1 nM, non-specific ligand with concentration 10 µM WB-4101, incubation time 60 min, incubation temperature 25 °C; conditions: Compound concentration 10.0 uM
T1 sequence (whole entry): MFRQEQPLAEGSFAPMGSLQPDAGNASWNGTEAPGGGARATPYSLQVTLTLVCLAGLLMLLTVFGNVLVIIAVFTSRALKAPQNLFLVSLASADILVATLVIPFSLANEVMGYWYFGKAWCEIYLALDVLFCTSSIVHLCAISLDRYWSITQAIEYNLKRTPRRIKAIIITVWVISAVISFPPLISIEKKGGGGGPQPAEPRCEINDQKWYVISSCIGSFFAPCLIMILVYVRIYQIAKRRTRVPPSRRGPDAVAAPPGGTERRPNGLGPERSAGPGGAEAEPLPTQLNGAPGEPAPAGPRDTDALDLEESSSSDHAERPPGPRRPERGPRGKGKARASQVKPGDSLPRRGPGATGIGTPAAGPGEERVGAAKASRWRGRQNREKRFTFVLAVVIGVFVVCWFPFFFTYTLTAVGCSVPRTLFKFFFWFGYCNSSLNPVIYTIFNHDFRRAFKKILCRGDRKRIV

[5] = molecular target: Interstitial collagenase (Homo sapiens) (UniProt P03956); experiment: Inhibition of Peptidase, Matrix Metalloproteinase-1 (MMP-1) at 10 µM in the Eurofins-Panlabs enzyme assay (Eurofins_assay_114110); conditions: Compound concentration 10.0 uM
[6] = molecular target: Histamine H1 receptor (Homo sapiens) (UniProt P35367); conditions: Compound concentration 10.0 uM
Cannabinoid receptor 1 = Cannabinoid receptor 1 (Homo sapiens, UniProt P21554)
[7] = molecular target: Sigma intracellular receptor 2 (Homo sapiens, UniProt Q5BJF2); experiment: Inhibition of Sigma 2 at 10 µM in the Eurofins-Panlabs radioligand binding assay (Eurofins_assay_278200); design: ligand concentration 3 nM; conditions: Rattus norvegicus; Compound concentration 10.0 uM
[8] = molecular target: C-X-C chemokine receptor type 2 (Homo sapiens) (UniProt P25025); experiment: Inhibition of Chemokine CXCR2 (IL-8RB) at 10 µM in the Eurofins-Panlabs radioligand binding assay (Eurofins_assay_244500); conditions: Compound concentration 10.0 uM
Rattus norvegicus [9] = organism: Rattus norvegicus; experiment: Inhibition of Imidazoline I2, Central at 10 µM in the Eurofins-Panlabs radioligand binding assay (Eurofins_assay_241000); design: ligand concentration 2 nM; conditions: Compound concentration 10.0 uM
[10] = molecular target: Prostaglandin G/H synthase 2 (Homo sapiens) (UniProt P35354); experiment: Inhibition of Cyclooxygenase COX-2 at compound concentration of 10.0 uM in the Eurofins-Panlabs enzyme assay (Eurofins_assay_118010); design: substrate with concentration 0.3 uM Arachidonic acid, incubation time 15 min, incubation temperature 37 C; conditions: Compound concentration 10.0 uM
Rattus norvegicus [11] = organism: Rattus norvegicus; experiment: Inhibition of Glutamate, NMDA, Phencyclidine at 10 µM in the Eurofins-Panlabs radioligand binding assay (Eurofins_assay_233000); format: protein-complex assay; conditions: Compound concentration 10.0 uM
[12] = molecular target: 5-hydroxytryptamine receptor 6 (Homo sapiens) (UniProt P50406); experiment: Inhibition of Serotonin (5-Hydroxytryptamine) 5-HT6 at 10 µM in the Eurofins-Panlabs radioligand binding assay (Eurofins_assay_272200); conditions: Compound concentration 10.0 uM
[13] = molecular target: Receptor-type tyrosine-protein phosphatase C (Homo sapiens) (UniProt P08575); experiment: Inhibition of Protein Tyrosine Phosphatase, PTPRC (CD45) at 10 µM in the Eurofins-Panlabs enzyme assay (Eurofins_assay_190010); conditions: Compound concentration 10.0 uM
[14] = tested on: Progesterone receptor (Bos taurus); experiment: Progesterone Eurofins-Panlabs radioligand binding assay; conditions: Compound concentration 10.0 uM
[15] = molecular target: Sigma non-opioid intracellular receptor 1 (Homo sapiens) (UniProt Q99720); experiment: Sigma 1 Eurofins-Panlabs radioligand binding assay; design: ligand concentration 8 nM; conditions: Compound concentration 10.0 uM
[16] = molecular target: D(2) dopamine receptor (Homo sapiens) (UniProt P14416); conditions: Compound concentration 10.0 uM
[17] = molecular target: Phosphodiesterase 3 (Homo sapiens) (UniProt Q14432+Q13370); experiment: Inhibition of Phosphodiesterase PDE3 at compound concentration of 10.0 uM in the Eurofins-Panlabs enzyme assay (Eurofins_assay_152000); format: protein assay; design: substrate with concentration 1.01 uM [3H] cAMP + cAMP, incubation time 20 min, incubation temperature 25 C; conditions: Compound concentration 10.0 uM
[18] = molecular target: T2, Alpha-1D adrenergic receptor (Homo sapiens) (UniProt P25100); experiment: Inhibition of Adrenergic alpha1D at 10 µM in the Eurofins-Panlabs radioligand binding assay (Eurofins_assay_203400); conditions: Compound concentration 10.0 uM
T2 sequence (whole entry): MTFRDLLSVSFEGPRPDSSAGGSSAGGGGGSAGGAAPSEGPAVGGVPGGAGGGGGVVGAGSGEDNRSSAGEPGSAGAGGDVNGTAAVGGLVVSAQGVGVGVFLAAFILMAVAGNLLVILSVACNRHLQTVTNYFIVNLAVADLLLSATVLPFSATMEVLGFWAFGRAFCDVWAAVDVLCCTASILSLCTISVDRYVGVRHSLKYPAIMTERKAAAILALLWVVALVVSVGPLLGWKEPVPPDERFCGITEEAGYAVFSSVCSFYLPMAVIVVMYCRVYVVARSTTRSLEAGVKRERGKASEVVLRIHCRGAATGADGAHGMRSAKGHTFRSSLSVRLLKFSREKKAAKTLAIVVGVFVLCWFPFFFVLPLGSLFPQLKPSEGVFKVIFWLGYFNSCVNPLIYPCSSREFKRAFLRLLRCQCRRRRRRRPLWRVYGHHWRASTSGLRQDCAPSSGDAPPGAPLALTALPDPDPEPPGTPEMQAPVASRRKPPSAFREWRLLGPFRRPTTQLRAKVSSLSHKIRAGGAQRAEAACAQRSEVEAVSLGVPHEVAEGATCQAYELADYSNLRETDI

[19] = molecular target: Adenosine receptor A3 (Homo sapiens) (UniProt P0DMS8); conditions: Compound concentration 10.0 uM
[20] = molecular target: Adenosine Transporter (Cavia porcellus) (UniProt H0V4R7+H0UUG1+H0V3Z5); experiment: Inhibition of Transporter, Adenosine at compound concentration of 10.0 uM in the Eurofins-Panlabs radioligand binding assay (Eurofins_assay_202000); format: protein assay; design: ligand concentration 0.5 nM, non-specific ligand with concentration 5 uM Nitrobenzylthioinosine, incubation time 30 min, incubation temperature 25 C; conditions: Compound concentration 10.0 uM
[21] = Inhibition of Platelet-Derived Growth Factor (PDGF) at 10 µM in the Eurofins-Panlabs radioligand binding assay (Eurofins_assay_265200); conditions: Compound concentration 10 uM; Detection method Radioligand Binding; Incubation temperature 25 °C; Incubation time 45 min; Ligand [3H]PDGF; Ligand concentration 0.02 nM; Non-specific ligand with concentration 10 nM PDGF; Source of protein Swiss mouse 3T3 embryo cells
[22] = molecular target: Estrogen receptor (Homo sapiens) (UniProt P03372); conditions: Compound concentration 10.0 uM
Sequence of Estrogen receptor (Homo sapiens) (P03372 whole entry): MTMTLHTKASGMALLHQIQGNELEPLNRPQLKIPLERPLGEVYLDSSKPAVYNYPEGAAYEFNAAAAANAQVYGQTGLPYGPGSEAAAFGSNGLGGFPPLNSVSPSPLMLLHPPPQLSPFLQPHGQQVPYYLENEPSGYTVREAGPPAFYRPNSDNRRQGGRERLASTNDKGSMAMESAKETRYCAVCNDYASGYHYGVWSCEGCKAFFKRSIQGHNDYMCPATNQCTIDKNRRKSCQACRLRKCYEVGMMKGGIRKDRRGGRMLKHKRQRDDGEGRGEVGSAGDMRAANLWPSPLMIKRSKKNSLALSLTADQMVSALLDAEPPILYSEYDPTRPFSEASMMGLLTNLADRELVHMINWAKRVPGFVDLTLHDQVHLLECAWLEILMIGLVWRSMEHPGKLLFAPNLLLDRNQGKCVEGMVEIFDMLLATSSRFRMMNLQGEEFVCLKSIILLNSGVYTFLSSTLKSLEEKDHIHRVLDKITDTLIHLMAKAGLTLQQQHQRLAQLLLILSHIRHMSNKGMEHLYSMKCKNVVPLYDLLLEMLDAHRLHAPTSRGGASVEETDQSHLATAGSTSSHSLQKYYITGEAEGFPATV

Sequence of Cannabinoid receptor 1 (P21554 whole entry): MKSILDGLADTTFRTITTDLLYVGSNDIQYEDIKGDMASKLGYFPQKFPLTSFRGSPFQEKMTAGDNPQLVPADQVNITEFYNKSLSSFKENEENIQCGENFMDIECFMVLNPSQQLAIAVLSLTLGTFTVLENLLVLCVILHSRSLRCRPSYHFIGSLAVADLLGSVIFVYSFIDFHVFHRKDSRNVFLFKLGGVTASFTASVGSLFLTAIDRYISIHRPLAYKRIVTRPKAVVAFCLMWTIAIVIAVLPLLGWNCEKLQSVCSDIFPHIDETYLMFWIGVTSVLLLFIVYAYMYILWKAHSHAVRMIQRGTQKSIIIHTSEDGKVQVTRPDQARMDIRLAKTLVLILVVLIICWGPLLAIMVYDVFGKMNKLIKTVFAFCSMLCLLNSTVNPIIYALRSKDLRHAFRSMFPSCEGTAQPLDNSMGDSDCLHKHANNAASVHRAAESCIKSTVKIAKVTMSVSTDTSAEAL
Sequence of D(2) dopamine receptor (Homo sapiens) (P14416 whole entry): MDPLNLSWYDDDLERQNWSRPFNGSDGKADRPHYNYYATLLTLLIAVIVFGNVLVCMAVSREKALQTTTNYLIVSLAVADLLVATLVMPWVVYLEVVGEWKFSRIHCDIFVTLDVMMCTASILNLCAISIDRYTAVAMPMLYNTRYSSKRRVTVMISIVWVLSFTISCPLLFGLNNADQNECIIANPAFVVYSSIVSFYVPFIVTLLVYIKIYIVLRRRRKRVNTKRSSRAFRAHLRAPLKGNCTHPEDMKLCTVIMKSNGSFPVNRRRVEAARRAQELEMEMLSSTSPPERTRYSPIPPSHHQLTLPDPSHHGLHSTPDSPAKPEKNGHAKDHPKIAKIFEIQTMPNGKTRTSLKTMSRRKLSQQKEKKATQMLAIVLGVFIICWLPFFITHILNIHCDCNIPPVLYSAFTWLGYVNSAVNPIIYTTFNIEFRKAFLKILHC
Sequence of 5-hydroxytryptamine receptor 6 (Homo sapiens) (P50406 whole entry): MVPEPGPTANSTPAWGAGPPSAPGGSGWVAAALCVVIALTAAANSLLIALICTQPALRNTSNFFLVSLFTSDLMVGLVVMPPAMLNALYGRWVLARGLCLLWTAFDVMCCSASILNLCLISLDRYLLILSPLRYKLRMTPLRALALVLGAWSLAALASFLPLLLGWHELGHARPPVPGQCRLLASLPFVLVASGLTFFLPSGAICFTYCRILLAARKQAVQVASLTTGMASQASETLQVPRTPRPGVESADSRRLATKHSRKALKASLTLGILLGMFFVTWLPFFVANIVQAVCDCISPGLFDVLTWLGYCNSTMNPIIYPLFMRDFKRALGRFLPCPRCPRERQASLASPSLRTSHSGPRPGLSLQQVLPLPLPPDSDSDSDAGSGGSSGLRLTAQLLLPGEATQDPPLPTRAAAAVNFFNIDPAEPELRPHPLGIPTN
Sequence of Adenosine receptor A3 (Homo sapiens) (P0DMS8 whole entry): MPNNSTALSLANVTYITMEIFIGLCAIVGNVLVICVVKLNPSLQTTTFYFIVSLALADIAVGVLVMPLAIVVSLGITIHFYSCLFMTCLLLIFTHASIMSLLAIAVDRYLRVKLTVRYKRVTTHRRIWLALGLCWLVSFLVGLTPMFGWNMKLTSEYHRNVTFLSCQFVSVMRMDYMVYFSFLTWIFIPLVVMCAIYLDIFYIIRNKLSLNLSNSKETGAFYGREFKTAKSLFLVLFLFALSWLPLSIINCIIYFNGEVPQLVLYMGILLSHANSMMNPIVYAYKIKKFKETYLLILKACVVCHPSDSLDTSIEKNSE
Sequence of Prostaglandin G/H synthase 2 (Homo sapiens) (P35354 whole entry): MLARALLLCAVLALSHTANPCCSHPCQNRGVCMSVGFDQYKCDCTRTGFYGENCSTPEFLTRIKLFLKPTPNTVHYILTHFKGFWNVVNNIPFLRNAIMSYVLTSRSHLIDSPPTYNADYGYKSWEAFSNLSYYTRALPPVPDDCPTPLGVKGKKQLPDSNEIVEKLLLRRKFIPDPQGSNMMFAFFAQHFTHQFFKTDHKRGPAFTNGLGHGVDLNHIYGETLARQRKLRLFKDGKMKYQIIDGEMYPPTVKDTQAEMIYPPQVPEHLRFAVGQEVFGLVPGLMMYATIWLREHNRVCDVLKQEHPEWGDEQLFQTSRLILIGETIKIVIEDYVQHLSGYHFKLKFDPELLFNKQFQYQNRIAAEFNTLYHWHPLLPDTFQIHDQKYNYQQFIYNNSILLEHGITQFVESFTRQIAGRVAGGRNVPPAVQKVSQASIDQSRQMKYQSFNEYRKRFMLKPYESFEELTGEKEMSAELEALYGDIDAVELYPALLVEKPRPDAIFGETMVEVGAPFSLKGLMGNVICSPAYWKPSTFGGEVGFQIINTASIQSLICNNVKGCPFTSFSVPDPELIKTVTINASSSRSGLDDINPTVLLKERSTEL
Sequence of Thromboxane-A synthase (Homo sapiens) (P24557 whole entry): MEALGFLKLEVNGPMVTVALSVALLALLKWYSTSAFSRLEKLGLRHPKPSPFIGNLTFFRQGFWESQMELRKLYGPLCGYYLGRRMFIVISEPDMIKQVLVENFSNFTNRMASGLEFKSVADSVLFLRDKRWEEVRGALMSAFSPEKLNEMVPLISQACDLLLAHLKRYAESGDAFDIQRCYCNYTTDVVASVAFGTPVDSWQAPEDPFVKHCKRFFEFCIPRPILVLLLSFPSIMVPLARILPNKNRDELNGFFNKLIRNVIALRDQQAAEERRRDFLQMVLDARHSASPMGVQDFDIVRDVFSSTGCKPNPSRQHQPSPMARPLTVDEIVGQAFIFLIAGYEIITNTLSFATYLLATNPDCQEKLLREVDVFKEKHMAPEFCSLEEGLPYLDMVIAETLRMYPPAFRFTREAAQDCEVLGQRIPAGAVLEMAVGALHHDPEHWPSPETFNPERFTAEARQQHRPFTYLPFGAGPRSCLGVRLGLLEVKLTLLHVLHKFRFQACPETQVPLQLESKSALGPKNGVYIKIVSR
Sequence of Receptor-type tyrosine-protein phosphatase C (Homo sapiens) (P08575 whole entry): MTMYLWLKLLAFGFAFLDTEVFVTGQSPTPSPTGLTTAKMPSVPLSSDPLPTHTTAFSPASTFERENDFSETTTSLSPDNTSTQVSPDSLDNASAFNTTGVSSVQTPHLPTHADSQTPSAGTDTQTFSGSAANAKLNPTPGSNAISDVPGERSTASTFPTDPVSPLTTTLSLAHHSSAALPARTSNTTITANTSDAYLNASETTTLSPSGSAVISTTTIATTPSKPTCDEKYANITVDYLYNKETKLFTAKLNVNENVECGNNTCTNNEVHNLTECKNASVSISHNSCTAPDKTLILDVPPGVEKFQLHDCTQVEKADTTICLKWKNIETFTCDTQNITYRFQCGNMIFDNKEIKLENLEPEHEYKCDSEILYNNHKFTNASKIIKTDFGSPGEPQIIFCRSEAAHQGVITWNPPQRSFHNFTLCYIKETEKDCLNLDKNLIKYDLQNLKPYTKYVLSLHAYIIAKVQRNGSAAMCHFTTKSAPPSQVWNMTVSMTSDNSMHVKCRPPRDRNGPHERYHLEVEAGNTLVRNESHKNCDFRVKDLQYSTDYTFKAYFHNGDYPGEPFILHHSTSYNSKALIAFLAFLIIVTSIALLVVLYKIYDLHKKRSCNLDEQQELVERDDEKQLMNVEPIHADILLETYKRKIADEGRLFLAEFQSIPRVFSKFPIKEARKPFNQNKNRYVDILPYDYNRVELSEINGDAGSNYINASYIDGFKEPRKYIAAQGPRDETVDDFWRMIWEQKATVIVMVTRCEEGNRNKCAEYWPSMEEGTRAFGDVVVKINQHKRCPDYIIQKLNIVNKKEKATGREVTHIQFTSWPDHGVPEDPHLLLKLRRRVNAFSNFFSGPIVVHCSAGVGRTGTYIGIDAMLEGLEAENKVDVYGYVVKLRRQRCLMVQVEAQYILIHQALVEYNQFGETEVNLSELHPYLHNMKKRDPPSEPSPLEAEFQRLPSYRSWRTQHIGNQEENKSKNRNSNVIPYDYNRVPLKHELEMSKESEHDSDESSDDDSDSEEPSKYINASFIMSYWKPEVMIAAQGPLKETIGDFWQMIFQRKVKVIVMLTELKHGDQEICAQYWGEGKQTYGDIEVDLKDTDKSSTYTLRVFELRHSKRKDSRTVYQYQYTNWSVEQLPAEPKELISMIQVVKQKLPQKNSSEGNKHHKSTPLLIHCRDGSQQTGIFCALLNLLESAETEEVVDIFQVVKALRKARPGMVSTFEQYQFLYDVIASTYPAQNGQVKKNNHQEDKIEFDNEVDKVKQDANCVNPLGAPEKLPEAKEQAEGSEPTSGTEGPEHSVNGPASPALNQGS
Sequence of Sigma non-opioid intracellular receptor 1 (Homo sapiens) (Q99720 whole entry): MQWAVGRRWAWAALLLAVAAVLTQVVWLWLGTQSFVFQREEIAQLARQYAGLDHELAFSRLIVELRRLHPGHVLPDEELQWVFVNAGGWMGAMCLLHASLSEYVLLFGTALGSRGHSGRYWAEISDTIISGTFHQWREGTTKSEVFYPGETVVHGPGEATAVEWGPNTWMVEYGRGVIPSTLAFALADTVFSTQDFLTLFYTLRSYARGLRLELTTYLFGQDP

Question: Which inhibition [1] does the source give for `O=C(NCc1ncc(C(F)(F)F)cc1Cl)c1ccc2c(c1)C1(CCS(=O)(=O)CC1)[C@H](C1CC1)N2S(=O)(=O)c1ccc(F)cc1` [BAY-784] here?
Answer: The inhibition was 22%.

Question: And the inhibition (D(1A) dopamine receptor)?
Answer: Its inhibition is 6%.

Question: What about the inhibition [2] of the same compound?
Answer: The inhibition was 7%.

Question: And the inhibition [3]?
Answer: Its inhibition is 87%.

Question: What about the inhibition [4] of the same compound?
Answer: The inhibition was -1%.

Question: And the inhibition [5]?
Answer: The inhibition was -4%.

Question: And the inhibition [6]?
Answer: Its inhibition is 9%.

Question: What about the inhibition (Cannabinoid receptor 1; Compound concentration 3.0 uM) of the same compound?
Answer: Its inhibition is 52%.

Question: And the inhibition (Cannabinoid receptor 1; Compound concentration 10.0 uM)?
Answer: Its inhibition is 73%.

Question: And the inhibition [7]?
Answer: The inhibition was 20%.

Question: And the inhibition [8]?
Answer: The inhibition was 14%.

Question: What about the inhibition (Rattus norvegicus [9]) of the same compound?
Answer: The inhibition was 10%.

Question: What about the inhibition [10] of the same compound?
Answer: The inhibition was 4%.

Question: What about the inhibition (Rattus norvegicus [11]) of the same compound?
Answer: Its inhibition is -4%.

Question: What about the inhibition [12] of the same compound?
Answer: The inhibition was 14%.

Question: What about the inhibition [13] of the same compound?
Answer: Its inhibition is -5%.

Question: What about the inhibition [14] of the same compound?
Answer: Its inhibition is 0%.

Question: And the inhibition [15]?
Answer: The inhibition was 15%.

Question: And the inhibition [16]?
Answer: Its inhibition is 4%.

Question: What about the inhibition [17] of the same compound?
Answer: Its inhibition is 9%.

Question: What about the inhibition [18] of the same compound?
Answer: Its inhibition is 18%.

Question: What about the inhibition [19] of the same compound?
Answer: The inhibition was 9%.

Question: What about the inhibition [20] of the same compound?
Answer: Its inhibition is 25%.

Question: And the inhibition at 10 µM [21]?
Answer: Its inhibition at 10 µM is -4% (not active).

Question: And the inhibition [22]?
Answer: Its inhibition is 21%.
